Test results reported in patent US20100130512A1, “FUSED-RING H[…]” (RENSSELAER POLYTECHNIC INSTITUTE, priority 2007, published 2010).
Like-named read-outs stand apart in the source and are kept apart here.

Tests used:
[1] = target: T1, human opioid receptor (μ) (Homo sapiens, UniProt P35372); test: Opioid receptor binding, [3H]DAMGO (μ)
T1 construct: expressed in transfected cells

[2] = target: T2, human opioid receptor (δ) (Homo sapiens, UniProt P41143); test: Opioid receptor binding, [3H]naltrindole (δ)
T2 construct: expressed in transfected cells
T2 sequence (P41143 whole entry): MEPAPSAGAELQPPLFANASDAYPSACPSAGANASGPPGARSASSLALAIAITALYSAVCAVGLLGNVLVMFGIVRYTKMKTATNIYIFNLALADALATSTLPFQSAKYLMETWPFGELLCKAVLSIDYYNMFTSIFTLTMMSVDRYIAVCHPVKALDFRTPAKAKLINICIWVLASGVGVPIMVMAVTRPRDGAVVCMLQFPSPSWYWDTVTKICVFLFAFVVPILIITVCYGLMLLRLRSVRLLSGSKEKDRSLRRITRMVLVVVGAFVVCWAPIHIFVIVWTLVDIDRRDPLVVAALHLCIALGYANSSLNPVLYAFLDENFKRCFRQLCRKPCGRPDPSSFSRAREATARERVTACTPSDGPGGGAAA

[3] = target: T3, human opioid receptor (κ) (Homo sapiens, UniProt P41145); test: Opioid receptor binding, [3H]U69,593 (κ)
T3 construct: expressed in transfected cells
T3 sequence (P41145 whole entry): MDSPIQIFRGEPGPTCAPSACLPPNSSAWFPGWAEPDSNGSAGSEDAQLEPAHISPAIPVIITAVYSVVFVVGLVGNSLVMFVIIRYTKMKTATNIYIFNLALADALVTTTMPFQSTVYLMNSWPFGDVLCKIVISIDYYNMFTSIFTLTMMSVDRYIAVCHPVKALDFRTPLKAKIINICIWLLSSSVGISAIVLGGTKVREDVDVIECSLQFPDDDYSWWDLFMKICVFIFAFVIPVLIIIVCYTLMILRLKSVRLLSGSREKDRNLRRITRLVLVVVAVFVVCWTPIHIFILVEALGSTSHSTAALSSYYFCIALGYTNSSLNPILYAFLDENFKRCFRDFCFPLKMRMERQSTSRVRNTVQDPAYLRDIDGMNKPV

human μ opioid receptor = target: T4, human μ opioid receptor (Homo sapiens, UniProt P35372); test: [35S]GTPγS binding assay, μ; assay type: biochemical; settings: agonist/antagonist character; antagonism vs 200 nM DAMGO
T4 construct: expressed in transfected cells
T4 sequence (P35372 whole entry): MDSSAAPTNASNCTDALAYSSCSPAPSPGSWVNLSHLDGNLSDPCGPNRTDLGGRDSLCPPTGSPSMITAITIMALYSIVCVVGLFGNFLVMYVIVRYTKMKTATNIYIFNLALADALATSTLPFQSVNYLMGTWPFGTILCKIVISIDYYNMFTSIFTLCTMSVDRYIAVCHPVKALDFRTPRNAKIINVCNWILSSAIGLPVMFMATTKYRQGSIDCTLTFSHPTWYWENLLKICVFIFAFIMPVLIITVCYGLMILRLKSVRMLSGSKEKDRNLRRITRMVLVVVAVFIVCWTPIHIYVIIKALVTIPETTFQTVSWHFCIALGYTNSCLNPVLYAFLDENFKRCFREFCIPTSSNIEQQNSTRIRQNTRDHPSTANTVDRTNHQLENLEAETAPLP

human κ opioid receptor = target: T5, human κ opioid receptor (Homo sapiens, UniProt P41145); test: [35S]GTPγS binding assay, κ; assay type: biochemical; settings: agonist/antagonist character; antagonism vs 100 nM U50,488
T5 construct: expressed in transfected cells
T5 sequence (P41145 whole entry): as the sequence (P41145 whole entry) above

mice = settings: cited from earlier work; for duration of action: 1 mg/kg ip in mice
guinea pig μ receptors = settings: cyclazocine series; μ printed as ∥; cited from earlier work
κ opioid receptors = settings: cyclazocine series; cited from earlier work
[4] = CHO cell membranes, 1 nM [3H]U69,593, mean±SEM, read-out: Ki [3H]U69,593 (K)
[5] = read-out: Ki [3H]DAMGO (μ), CHO cell membranes, […] [3H]DAMGO, mean±SEM
[6] = read-out: Ki [3H]Naltrindole (δ), CHO cell membranes, 0.2 nM [3H]naltrindole, mean±SEM

T1 sequence (P35372 whole entry): as the sequence (P35372 whole entry) above

| SMILES | Ki [1] [nM] | Ki [2] [nM] | Ki [3, 4] [nM] | further results |
| --- | --- | --- | --- | --- |
| CC1C2Cc3ccc4c(N)ncnc4c3C1(C)CCN2CC1CC1 (centres unmarked) [Example 10] | 0.55 ± 0.018 | 120 ± 8.5 | 1 ± 0.071 | GTPγS data, MOR (human μ opioid receptor): MOR and KOR antagonist; GTPγS data, KOR (human κ opioid receptor): MOR and KOR antagonist |
| C[C@H]1C2Cc3cc4nn[nH]c4cc3[C@@]1(C)CCN2CC1CC1 [Example 30] | – | – | 0.81 ± 0.19 | Ki [1, 5]: 10 ± 1 nM; Ki [2, 6]: 51 ± 7.8 nM; GTPγS data, MOR (human μ opioid receptor): antagonist; GTPγS data, KOR (human κ opioid receptor): agonist |
| CC1C2Cc3ccc4c(NCCc5ccc(-c6ccccc6)cc5)ncnc4c3C1(C)CCN2CC1CC1 (centres unmarked) [Example 14] | 6.9 ± 0.33 | 52 ± 2.6 | 8.6 ± 1.5 | – |
| CC1C2Cc3cc4nc[nH]c4cc3C1(C)CCN2CC1CC1 (centres unmarked) [Example 34] | 0.31 ± 0.05 | 5.1 ± 0.65 | 0.063 ± 0.0016 | GTPγS data, MOR (human μ opioid receptor): MOR weak agonist/antagonist, KOR |
| C[C@H]1[C@H]2Cc3ccc(O)cc3[C@]1(C)CCN2CC1CC1 [cyclazocine] | – | – | – | duration of action (mice): 2 h |
| CC1C2Cc3cc4[nH]c(=O)[nH]c4cc3C1(C)CCN2CC1CC1 (centres unmarked) [Example 36] | 60 ± 7.9 | 730 ± 8.3 | 12 ± 1.3 | – |
| C[C@H]1C2Cc3ccc(C(N)=O)cc3[C@@]1(C)CCN2CC1CC1 [Example 8-CAC, 8-carboxamidocyclazocine] | – | – | – | duration of action (mice): 15 h; antinociception activity (mice; studies in vivo): high antinociception activity; affinity for μ opioid receptors (guinea pig μ receptors): high affinity; affinity for κ opioid receptors (κ opioid receptors): high affinity |
| CC1C2Cc3cc4ncnc(N)c4cc3C1(C)CCN2CC1CC1 (centres unmarked) [Example 11] | 890 ± 39 | – | 560 ± 23 | inhibition at 10 µM ([2]; read-out: inh. of [3H]Naltrindole (δ) binding, at 10 μM): 47% |
| CC1C2Cc3ccc(C(N)=O)c(N)c3C1(C)CCN2CC1CC1 (mixture of isomers) [Example 6, Cis-(±)-3-(cyclopropylmethyl)-1,2,3,4,5,6-hexahydro-6,11-dimethyl-7-amino-2,6-methano-3-benzazocine-8-carboxamide] | 0.55 ± 0.029 | 35 ± 0.036 | – | Ki [3]: 0.7 ± 0.036 nM |
| CC1C2Cc3cc4ncnc(NCCc5ccc(-c6ccccc6)cc5)c4cc3C1(C)CCN2CC1CC1 (centres unmarked) [Example 15] | 28 ± 1.9 | 410 ± 61 | 140 ± 4.4 | – |
| C[C@H]1C2Cc3cc(N)c(C(N)=O)cc3[C@@]1(C)CCN2CC1CC1 (racemic) [Example 7, Cis-(±)-3-(cyclopropylmethyl)-1,2,3,4,5,6-hexahydro-6,11-dimethyl-9-amino-2,6-methano-3-benzazocine-8-carboxamide] | 88 ± 5.2 | 2000 ± 12 | – | Ki [3]: 32 ± 1.7 nM |
| C[C@H]1C2Cc3ccc4[nH]nnc4c3[C@@]1(C)CCN2CC1CC1 [Example 29] | – | – | 0.23 ± 0.009 | Ki [1, 5]: 1.4 ± 0.043 nM; Ki [2, 6]: 46 ± 2.6 nM; GTPγS data, MOR (human μ opioid receptor): antagonist; GTPγS data, KOR (human κ opioid receptor): agonist |
| C[C@H]1C2Cc3ccc4c(N)onc4c3[C@@]1(C)CCN2CC1CC1 [Example 43] | 0.75 ± 0.038 | 99 ± 10 | 0.65 ± 0.005 | – |
| C[C@H]1C2Cc3cc4nc[nH]c(=O)c4cc3[C@@]1(C)CCN2CC1CC1 [Example 9] | – | – | 12 ± 0.65 | Ki [1, 5]: 170 ± 6.7 nM; Ki [2, 6]: 780 ± 32 nM |
| CC1C2Cc3cc4ncnc(NCc5ccccc5)c4cc3C1(C)CCN2CC1CC1 (centres unmarked) [Example 13] | 88 ± 7.2 | 1000 ± 37 | 48 ± 2.3 | – |
| Cc1nc2cc3c(cc2[nH]1)CC1C(C)C3(C)CCN1CC1CC1 (centres unmarked) [Example 35] | 0.77 ± 0.051 | 18 ± 0.9 | 0.05 ± 0.002 | GTPγS data, MOR (human μ opioid receptor): MOR agonist/weak antagonist; KOR; GTPγS data, KOR (human κ opioid receptor): agonist |
| CC1C2Cc3ccc4c(NCc5ccccc5)ncnc4c3C1(C)CCN2CC1CC1 (centres unmarked) [Example 12] | 44 ± 0.76 | 1500 ± 68 | 240 ± 1.8 | – |
| C[C@H]1C2Cc3ccc4c(=O)[nH]cnc4c3[C@@]1(C)CCN2CC1CC1 [Example 8] | – | – | 160 ± 7.1 | Ki [1, 5]: 270 ± 33 nM; Ki [2, 6]: 2000 ± 49 nM |
